Laboratory results reported in US8802674B2, “Aminopyrimidine derivatives as LRRK2 modulators” (Genentech, Inc., priority 2011, dated 2014).

Target: LRRK2 (Homo sapiens (Human), UniProt Q5S007, G2019S)
Assay: In Vitro LRRK2 LabChip Assay
Format: biochemical
Conditions: Table 4
Method in brief: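 Potency (Ki in μM, IC50 or % inhibition) derived from capillary-electrophoresis separation of phospho- and unphosphorylated fluorescent peptide, with Ki fitted by a tight-binding model.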

Sequence of LRRK2 (Q5S007 970-2527 G2019S limits assumed): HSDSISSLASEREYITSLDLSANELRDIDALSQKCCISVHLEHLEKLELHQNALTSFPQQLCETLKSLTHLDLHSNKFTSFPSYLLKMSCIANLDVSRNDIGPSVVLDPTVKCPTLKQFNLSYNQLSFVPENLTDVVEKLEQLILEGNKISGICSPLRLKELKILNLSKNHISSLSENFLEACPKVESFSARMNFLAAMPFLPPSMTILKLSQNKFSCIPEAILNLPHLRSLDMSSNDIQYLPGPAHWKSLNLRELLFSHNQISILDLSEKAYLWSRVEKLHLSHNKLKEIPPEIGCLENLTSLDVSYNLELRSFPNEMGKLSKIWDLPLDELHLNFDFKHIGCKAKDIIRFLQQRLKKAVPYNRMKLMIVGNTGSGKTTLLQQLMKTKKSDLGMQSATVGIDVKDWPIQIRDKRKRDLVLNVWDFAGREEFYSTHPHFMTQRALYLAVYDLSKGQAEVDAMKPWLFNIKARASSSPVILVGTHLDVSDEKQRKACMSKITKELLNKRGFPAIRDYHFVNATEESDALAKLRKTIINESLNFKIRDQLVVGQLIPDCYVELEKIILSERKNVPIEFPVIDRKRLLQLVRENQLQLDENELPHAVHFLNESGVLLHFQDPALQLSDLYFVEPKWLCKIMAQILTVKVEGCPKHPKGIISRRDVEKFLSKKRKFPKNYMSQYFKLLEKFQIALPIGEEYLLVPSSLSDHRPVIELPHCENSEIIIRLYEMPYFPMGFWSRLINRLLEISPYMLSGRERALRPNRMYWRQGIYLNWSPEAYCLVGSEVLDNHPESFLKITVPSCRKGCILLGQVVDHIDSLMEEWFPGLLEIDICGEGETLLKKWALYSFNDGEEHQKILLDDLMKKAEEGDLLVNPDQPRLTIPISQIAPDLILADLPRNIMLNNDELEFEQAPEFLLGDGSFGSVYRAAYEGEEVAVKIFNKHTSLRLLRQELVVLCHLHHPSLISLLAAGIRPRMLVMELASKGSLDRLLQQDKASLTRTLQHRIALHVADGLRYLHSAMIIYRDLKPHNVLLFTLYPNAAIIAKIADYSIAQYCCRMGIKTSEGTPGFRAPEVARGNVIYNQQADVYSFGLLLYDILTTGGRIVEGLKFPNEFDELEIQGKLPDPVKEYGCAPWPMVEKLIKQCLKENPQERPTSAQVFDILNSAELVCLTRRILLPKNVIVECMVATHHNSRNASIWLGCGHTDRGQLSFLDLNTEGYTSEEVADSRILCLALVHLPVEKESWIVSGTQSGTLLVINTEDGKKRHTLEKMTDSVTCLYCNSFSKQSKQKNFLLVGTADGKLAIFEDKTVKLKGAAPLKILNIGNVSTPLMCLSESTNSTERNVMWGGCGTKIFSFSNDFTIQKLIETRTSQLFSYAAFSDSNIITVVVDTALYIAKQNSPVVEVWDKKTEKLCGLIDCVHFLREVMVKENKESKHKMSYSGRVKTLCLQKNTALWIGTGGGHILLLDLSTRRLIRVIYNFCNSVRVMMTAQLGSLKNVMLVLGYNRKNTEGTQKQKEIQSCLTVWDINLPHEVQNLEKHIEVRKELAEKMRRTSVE

SMILES | Ki [nM]
CNc1nc(Nc2ccc(C(=O)N3CC(N4CCOCC4)C3)cc2OC)ncc1Cl [Example 89, [4-(5-Chloro-4-methylamino-pyrimidin-2-ylamino)-3-methoxy-phenyl]-(3-morpholin-4-yl-azetidin-1-yl)-methanone] | 2.7
CCNc1nc(Nc2cc(OC)c(C(=O)N3CCOCC3)cc2Cl)ncc1C(F)(F)F [Example 147, [5-Chloro-4-(4-ethylamino-5-trifluoromethyl-pyrimidin-2-ylamino)-2-methoxy-phenyl]-morpholin-4-yl-methanone] | 3.4
CNc1nc(Nc2cc(OC)c(C(=O)N3CCC(F)(F)CC3)cc2Cl)ncc1Cl [Example 146, [5-Chloro-4-(5-chloro-4-methylamino-pyrimidin-2-ylamino)-2-methoxy-phenyl]-(4,4-difluoro-piperidin-1-yl)-methanone] | 7.8
COc1cc(C(=O)N2CCOCC2)ccc1Nc1ncc(Cl)c(OC)n1 [Example 61, [4-(5-Chloro-4-methoxy-pyrimidin-2-ylamino)-3-methoxy-phenyl]-morpholin-4-yl-methanone] | 10.4
CCNc1nc(Nc2ccc(C(=O)N3CCOCC3)cc2OC(F)(F)F)ncc1C(F)(F)F [Example 234, (4-(4-(ethylamino)-5-(trifluoromethyl)pyrimidin-2-ylamino)-3-(trifluoromethoxy)phenyl)(morpholino) methanone] | 3.2
CNc1nc(Nc2cc(OC)c(C(=O)N3CCOCC3)cc2F)ncc1C(F)(F)F [Example 237, (5-fluoro-2-methoxy-4-(4-(methylamino)-5-(trifluoromethyl)pyrimidin-2-ylamino)phenyl) (morpholino)methanone] | 4.8
COc1cc(C(=O)N2CCOCC2)ccc1Nc1ncc(Cl)c(N2CCCCC2)n1 [Example 254, (4-(5-chloro-4-(piperidin-1-yl)pyrimidin-2-ylamino)-3-methoxyphenyl) (morpholino) methanone] | 12.1
CNc1nc(Nc2ccc(C(=O)N3CC[C@@H](O)C3)cc2OC)ncc1Br [Example 77, [4-(5-Bromo-4-methylamino-pyrimidin-2-ylamino)-3-methoxy-phenyl]-((R)-3-hydroxy-pyrrolidin-1-yl)-methanone] | 5.1
CNc1nc(Nc2ccc(C(=O)N3CC[C@H](F)C3)cc2OC)ncc1C#N [Example 196, 2-[4-((S)-3-Fluoro-pyrrolidine-1-carbonyl)-2-methoxy-phenylamino]-4-methylamino-pyrimidine-5-carbonitrile] | 6
COc1cc(CC(=O)N2CCOCC2)ccc1Nc1ncc(Br)c(OC)n1 [Example 226, 2-[4-(5-Bromo-4-methoxy-pyrimidin-2-ylamino)-3-methoxy-phenyl]-1-morpholin-4-yl-ethanone] | 5.6
CNc1nc(Nc2cc(OC)c(C(=O)N(C)C)cc2Cl)ncc1Cl [Example 140, 5-Chloro-4-(5-chloro-4-methylamino-pyrimidin-2-ylamino)-2-methoxy-N,N-dimethyl-benzamide] | 11.8
CNc1nc(Nc2ccc(C(=O)NC(C)C)cc2OC)ncc1C#N [Example 200, 4-(5-Cyano-4-methylamino-pyrimidin-2-ylamino)-N-isopropyl-3-methoxy-benzamide] | 4.4
CNc1nc(Nc2cc(OC)c(CC(=O)N3CCOCC3)cc2OC)ncc1C(F)(F)F [Example 227, 2-[2,5-Dimethoxy-4-(4-methylamino-5-trifluoromethyl-pyrimidin-2-ylamino)-phenyl]-1-morpholin-4-yl-ethanone] | 3.7
CNc1nc(Nc2cc(OC)c(C(=O)NC3COC3)cc2Cl)ncc1Cl [Example 153, 5-Chloro-4-(5-chloro-4-methylamino-pyrimidin-2-ylamino)-2-methoxy-N-oxetan-3-yl-benzamide] | 27.4
COc1cc(C(=O)N2CCOCC2)ccc1Nc1ncc(Cl)c(N2CCCC2)n1 [Example 255, (4-(5-chloro-4-(pyrrolidin-1-yl)pyrimidin-2-ylamino)-3-methoxyphenyl) (morpholino) methanone] | 17.9
CNc1nc(Nc2ccc(C(=O)N3CCC(C(F)(F)F)C3)cc2OC)ncc1Br (stereo not drawn) [Example 72, [4-(5-Bromo-4-methylamino-pyrimidin-2-ylamino)-3-methoxy-phenyl]-(3-trifluoromethyl-pyrrolidin-1-yl)-methanone] | 6.4
CNc1nc(Nc2cc(OC)c(C(=O)N3CCC(O)C3)cc2Cl)ncc1Cl (stereo not drawn) [Example 152, [5-Chloro-4-(5-chloro-4-methylamino-pyrimidin-2-ylamino)-2-methoxy-phenyl]-(3-hydroxy-pyrrolidin-1-yl)-methanone] | 8.6
CNc1nc(Nc2ccc(C(=O)N3CCOCC3)cc2OC(C)C)ncc1C(F)(F)F [Example 215, [3-Isopropoxy-4-(4-methylamino-5-trifluoromethyl-pyrimidin-2-ylamino)-phenyl]-morpholin-4-yl-methanone] | 9.4
CNc1nc(Nc2cc(OC)c(C(=O)N3CCNCC3)cc2Cl)ncc1Cl [Example 150, [5-Chloro-4-(5-chloro-4-methylamino-pyrimidin-2-ylamino)-2-methoxy-phenyl]-piperazin-1-yl-methanone] | 8.9
CNc1nc(Nc2ccc(C(=O)N3CCCC(C(F)(F)F)C3)cc2OC)ncc1Cl (stereo not drawn) [Example 26, [4-(5-Chloro-4-methylamino-pyrimidin-2-ylamino)-3-methoxy-phenyl]-(3-trifluoromethyl-piperidin-1-yl)-methanone] | 2.8
CNc1nc(Nc2ccc(C(=O)N3C4CCC3COC4)cc2OC)ncc1Cl [Example 57, [4-(5-Chloro-4-methylamino-pyrimidin-2-ylamino)-3-methoxy-phenyl]-(3-oxa-8-aza-bicyclo[3.2.1]oct-8-yl)-methanone] | 2.5

Same assay, conditions: Table 5

SMILES | Ki [nM]
COc1nc(Nc2ccc(C(=O)N3CCOCC3)cc2Cl)ncc1Cl [Example 261, [3-Chloro-4-(5-chloro-4-methoxy-pyrimidin-2-ylamino)-phenyl]-morpholin-4-yl-methanone] | 47

Same assay, conditions: Table 6

SMILES | Ki [nM]
CCNc1nc(Nc2cc(F)c(C(=O)N(CC)CCOC)cc2OC)ncc1C(F)(F)F [Example 307, N-Ethyl-4-(4-ethylamino-5-trifluoromethyl-pyrimidin-2-ylamino)-2-fluoro-5-methoxy-N-(2-methoxy-ethyl)-benzamide] | 1.4
CCNc1nc(Nc2cc(F)c(C(=O)N3CCOCC3)cc2OCC)ncc1C(F)(F)F [Example 309, [5-Ethoxy-4-(4-ethylamino-5-trifluoromethyl-pyrimidin-2-ylamino)-2-fluoro-phenyl]-morpholin-4-yl-methanone] | 2.1
CNc1nc(Nc2ccc(C(=O)N3CCOCC3)cc2Cl)ncc1C(F)(F)F [Example 291, [3-Chloro-4-(4-methylamino-5-trifluoromethyl-pyrimidin-2-ylamino)-phenyl]-morpholin-4-yl-methanone] | 17
CNc1nc(Nc2ccc(C(=O)N3CCOCC3)cc2Br)ncc1C(F)(F)F [Example 290, [3-Bromo-4-(4-methylamino-5-trifluoromethyl-pyrimidin-2-ylamino)-phenyl]-morpholin-4-yl-methanone] | 7.5
COc1cc(C(=O)N2CCOCC2)ccc1Nc1ncc(C(F)(F)F)c(N2CCCC2)n1 [Example 268, [3-Methoxy-4-(4-pyrrolidin-1-yl-5-trifluoromethyl-pyrimidin-2-ylamino)-phenyl]-morpholin-4-yl-methanone] | 19
